We go through 4 substances from patent publication US9624280B2 (JANSSEN BIOTECH, INC., priority 2013, dated 2017).

The target of assay [1] is human Nav1.5 (Homo sapiens, UniProt Q14524).
Assay [2] addresses T1, human Nav1.6 (Homo sapiens, UniProt Q9UQD0).
T1 construct: expressed in transfected cells
In kind it is cell-based.

For assay [3], the system named is C57Bl/6 mice. As to the kind of experiment: CFA model of inflammatory pain, thermal hyperalgesia (Hargreaves test). In kind it is in vivo. Conditions: for Thermal MPE %: CFA model, mice, mean±s.e.m. (n). The protocol:
(§1) Male C57Bl/6 mice (24-26 g), ordered from Charles River and housed individually, were used for this study.
This box consists of a chamber with a raised glass floor maintained at a constant temperature (27° C.). The thermal nociceptive stimulus originates from a projection bulb light beam below the glass surface. The light beam is aimed at the area between toris (center plantar). The “start” button will turn on the light and start the timer. Movements (such as a sudden withdrawal) of the stimulated paw will trigger the switch to turn off the light and stop the timer. […] If no movement occurs, the bulb will be turned off after 20 seconds (cutoff) to prevent tissue injury. The animals were allowed to habituate on the glass surface for 30-60 minutes before PWL measurement.
(§2) Percent maximum possible effect (MPE %)=(T1−T0)/(Tc−T0)×100%. T0: threshold on day0 (post-CFA, pre-pump); T1: threshold on day1 post pump implantation; Tc: cut-off of the test (20 s for the Hargreaves test and 2 g for the Von Frey test)
(§3) Animals were anesthetized with isoflurane (4% induction and 2% maintenance) and 20 μL of 100% Complete Freund's Adjuvant (CFA; Sigma-Aldrich; Saint Louis, Mo.) was injected into the center plantar area on one hind paw using a 27 gauge needle attached to a 50 μL Hamilton syringe. Carrageenan model: Animals were anesthetized with isoflurane (4% induction and 2% maintenance) and 25 μL of 2% A-carrageenan (Sigma-Aldrich; Saint Louis, Mo.) dissolved in normal saline was injected into the center plantar area on hind paws using an insulin syringe (BD; Franklin Lakes, N.J.).
(§4) Alzet micro-osmotic mini pumps (Durect Corporation Model 1003D and 2001D) were filled and primed per manufacturer's guide. Mice were anesthetized with isoflurane (5% induction; 2% maintenance). Their backs were shaved, wiped down with isopropyl alcohol and povidone iodine, and a small incision was made between the scapulae. Using a pair of forceps or hemostat, a small pocket was formed by spreading the subcutaneous connective tissues apart. The pump was inserted into the pocket with the flow moderator pointing away from the incision. The skin incision was then closed using 7 mm staples and the animals were allowed to recover in their home cages.
(§5) Data are represented as mean±s.e.m. Prism (Graphpad Software Inc., La Jolla, Calif.) was used for graphing and statistical analysis. For comparison of threshold values over time, a two-way ANOVA followed by Bonferroni's multiple comparison test was used with a significance level of p<0.05. Hotplate and MPE % data were analyzed by one-way ANOVA followed by Bonferroni's multiple comparison test.

Assay [4] has as its system C57Bl/6 mice. As to the kind of experiment: CFA model, tactile allodynia (Von Frey test). In kind it is in vivo.
Description: as §1
7 graded stimuli (von Frey filaments: 0.03, 0.07, 0.16, 0.4, 0.6, 1, 2 g; Stoelting, Wood Dale, Ill.) were used. Von Frey hairs were presented perpendicularly against the center plantar area (between toris) on a hindpaw. Sufficient force was applied to bend the filament slightly and held for 3 seconds. Per the Chaplan paper, a positive response can be either 1) a sharp withdrawal or 2) immediate flinching upon removal of the filament. See Chaplan et al for more details. Mice were acclimated to the wire mesh in the testing chamber for 30-60 minutes prior to testing.
as §2, §3
Alzet micro-osmotic mini pumps (Durect Corporation Model 1003D and 2001D) were filled and primed per manufacturer's guide. Mice were anesthetized with isoflurane (5% induction; 2% maintenance). Their backs were shaved, wiped down with isopropyl alcohol and povidone iodine, and a small incision was made between the scapulae. Using a pair of forceps or hemostat, a small pocket was formed by spreading the subcutaneous connective tissues apart. […]
Data are represented as mean±s.e.m. […] Hotplate and MPE % data were analyzed by one-way ANOVA followed by Bonferroni's multiple comparison test.

Assay [5] has as its system C57Bl/6 mice. As to the kind of experiment: Hotplate test. Format: in vivo. The protocol: as §1
Animals were placed on a 10″×10″ metal plate surrounded by 4 Plexiglas walls (15 inches high). The plate was maintained at a temperature of either 50 or 55° C. The response latency (time when the animal first flinches or licks its hind paw, jumps, or vocalizes) was measured and the animal removed from the plate. Animals showing no response were removed from the plate after 40 s (50° C.) or 20 s (55° C.) to prevent any possible tissue damage. This trial was repeated 2-5 times every 15-60 minutes in a day.
as §4, §5

The subject of assay [6] is C57Bl/6 mice. The note with it: mouse, in vivo.
For assay [7], the system named is rodent. The note with it: Schmalhofer et al. 2008; cited from earlier work.
Assay [8] concerns isolated nerves. The note with it: unless the perineural barrier is compromised; Hackel et al. 2012; cited from earlier work.

“Also recorded” adds a separate entry of the source. Like-named read-outs stand apart in the source and are kept apart here. No end group written: not given here. A value given as a limit tells only on which side of the number the result lay.

Chain of human Nav1.5 (Q14524 whole entry): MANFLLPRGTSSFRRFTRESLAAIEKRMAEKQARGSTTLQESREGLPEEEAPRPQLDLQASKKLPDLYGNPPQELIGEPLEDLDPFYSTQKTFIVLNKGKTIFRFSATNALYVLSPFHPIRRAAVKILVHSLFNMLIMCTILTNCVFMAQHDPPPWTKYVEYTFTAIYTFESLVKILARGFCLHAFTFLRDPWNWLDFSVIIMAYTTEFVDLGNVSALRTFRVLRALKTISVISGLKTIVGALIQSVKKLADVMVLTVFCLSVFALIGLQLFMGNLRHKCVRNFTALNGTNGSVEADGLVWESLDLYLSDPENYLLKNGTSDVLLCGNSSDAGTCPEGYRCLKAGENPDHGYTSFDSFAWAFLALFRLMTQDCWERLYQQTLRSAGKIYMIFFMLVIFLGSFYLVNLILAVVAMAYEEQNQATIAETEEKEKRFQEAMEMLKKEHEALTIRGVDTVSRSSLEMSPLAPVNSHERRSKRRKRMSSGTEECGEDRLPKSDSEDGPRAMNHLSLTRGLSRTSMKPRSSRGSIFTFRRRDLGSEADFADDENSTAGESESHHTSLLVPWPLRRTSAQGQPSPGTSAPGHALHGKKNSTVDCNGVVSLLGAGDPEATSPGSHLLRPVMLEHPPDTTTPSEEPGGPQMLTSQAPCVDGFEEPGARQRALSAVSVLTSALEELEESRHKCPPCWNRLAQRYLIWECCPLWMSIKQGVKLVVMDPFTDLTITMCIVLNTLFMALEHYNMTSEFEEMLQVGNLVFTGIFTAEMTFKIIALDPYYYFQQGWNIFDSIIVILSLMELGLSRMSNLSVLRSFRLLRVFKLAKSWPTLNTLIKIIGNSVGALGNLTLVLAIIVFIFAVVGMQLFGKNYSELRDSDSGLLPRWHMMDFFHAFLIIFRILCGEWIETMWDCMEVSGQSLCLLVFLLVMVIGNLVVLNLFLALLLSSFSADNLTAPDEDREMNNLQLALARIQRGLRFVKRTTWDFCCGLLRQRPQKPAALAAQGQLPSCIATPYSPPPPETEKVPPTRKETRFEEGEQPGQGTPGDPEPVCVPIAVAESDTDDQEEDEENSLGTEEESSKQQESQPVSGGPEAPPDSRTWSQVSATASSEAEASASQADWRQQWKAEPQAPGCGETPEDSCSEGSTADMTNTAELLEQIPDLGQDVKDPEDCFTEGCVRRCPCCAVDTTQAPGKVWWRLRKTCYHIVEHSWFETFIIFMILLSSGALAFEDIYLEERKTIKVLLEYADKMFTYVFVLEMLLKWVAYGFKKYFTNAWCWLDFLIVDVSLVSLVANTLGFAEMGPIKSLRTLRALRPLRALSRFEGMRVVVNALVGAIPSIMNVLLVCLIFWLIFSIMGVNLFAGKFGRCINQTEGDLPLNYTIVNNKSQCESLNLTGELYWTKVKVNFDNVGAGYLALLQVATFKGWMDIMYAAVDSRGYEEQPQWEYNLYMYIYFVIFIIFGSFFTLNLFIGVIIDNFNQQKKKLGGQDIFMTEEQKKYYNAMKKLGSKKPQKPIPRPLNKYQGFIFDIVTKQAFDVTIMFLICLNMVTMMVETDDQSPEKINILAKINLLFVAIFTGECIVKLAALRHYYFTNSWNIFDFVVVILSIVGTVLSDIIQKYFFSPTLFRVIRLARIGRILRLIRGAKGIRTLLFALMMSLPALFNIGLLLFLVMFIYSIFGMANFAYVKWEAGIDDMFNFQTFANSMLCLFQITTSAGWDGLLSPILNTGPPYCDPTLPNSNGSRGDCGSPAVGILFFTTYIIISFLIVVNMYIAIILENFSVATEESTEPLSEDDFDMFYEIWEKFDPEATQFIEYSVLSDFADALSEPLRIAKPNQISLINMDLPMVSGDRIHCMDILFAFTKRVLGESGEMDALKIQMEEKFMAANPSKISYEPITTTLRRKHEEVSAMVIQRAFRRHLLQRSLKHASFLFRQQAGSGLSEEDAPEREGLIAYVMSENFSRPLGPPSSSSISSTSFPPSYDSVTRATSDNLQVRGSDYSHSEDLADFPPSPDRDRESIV
T1 sequence (Q9UQD0 whole entry): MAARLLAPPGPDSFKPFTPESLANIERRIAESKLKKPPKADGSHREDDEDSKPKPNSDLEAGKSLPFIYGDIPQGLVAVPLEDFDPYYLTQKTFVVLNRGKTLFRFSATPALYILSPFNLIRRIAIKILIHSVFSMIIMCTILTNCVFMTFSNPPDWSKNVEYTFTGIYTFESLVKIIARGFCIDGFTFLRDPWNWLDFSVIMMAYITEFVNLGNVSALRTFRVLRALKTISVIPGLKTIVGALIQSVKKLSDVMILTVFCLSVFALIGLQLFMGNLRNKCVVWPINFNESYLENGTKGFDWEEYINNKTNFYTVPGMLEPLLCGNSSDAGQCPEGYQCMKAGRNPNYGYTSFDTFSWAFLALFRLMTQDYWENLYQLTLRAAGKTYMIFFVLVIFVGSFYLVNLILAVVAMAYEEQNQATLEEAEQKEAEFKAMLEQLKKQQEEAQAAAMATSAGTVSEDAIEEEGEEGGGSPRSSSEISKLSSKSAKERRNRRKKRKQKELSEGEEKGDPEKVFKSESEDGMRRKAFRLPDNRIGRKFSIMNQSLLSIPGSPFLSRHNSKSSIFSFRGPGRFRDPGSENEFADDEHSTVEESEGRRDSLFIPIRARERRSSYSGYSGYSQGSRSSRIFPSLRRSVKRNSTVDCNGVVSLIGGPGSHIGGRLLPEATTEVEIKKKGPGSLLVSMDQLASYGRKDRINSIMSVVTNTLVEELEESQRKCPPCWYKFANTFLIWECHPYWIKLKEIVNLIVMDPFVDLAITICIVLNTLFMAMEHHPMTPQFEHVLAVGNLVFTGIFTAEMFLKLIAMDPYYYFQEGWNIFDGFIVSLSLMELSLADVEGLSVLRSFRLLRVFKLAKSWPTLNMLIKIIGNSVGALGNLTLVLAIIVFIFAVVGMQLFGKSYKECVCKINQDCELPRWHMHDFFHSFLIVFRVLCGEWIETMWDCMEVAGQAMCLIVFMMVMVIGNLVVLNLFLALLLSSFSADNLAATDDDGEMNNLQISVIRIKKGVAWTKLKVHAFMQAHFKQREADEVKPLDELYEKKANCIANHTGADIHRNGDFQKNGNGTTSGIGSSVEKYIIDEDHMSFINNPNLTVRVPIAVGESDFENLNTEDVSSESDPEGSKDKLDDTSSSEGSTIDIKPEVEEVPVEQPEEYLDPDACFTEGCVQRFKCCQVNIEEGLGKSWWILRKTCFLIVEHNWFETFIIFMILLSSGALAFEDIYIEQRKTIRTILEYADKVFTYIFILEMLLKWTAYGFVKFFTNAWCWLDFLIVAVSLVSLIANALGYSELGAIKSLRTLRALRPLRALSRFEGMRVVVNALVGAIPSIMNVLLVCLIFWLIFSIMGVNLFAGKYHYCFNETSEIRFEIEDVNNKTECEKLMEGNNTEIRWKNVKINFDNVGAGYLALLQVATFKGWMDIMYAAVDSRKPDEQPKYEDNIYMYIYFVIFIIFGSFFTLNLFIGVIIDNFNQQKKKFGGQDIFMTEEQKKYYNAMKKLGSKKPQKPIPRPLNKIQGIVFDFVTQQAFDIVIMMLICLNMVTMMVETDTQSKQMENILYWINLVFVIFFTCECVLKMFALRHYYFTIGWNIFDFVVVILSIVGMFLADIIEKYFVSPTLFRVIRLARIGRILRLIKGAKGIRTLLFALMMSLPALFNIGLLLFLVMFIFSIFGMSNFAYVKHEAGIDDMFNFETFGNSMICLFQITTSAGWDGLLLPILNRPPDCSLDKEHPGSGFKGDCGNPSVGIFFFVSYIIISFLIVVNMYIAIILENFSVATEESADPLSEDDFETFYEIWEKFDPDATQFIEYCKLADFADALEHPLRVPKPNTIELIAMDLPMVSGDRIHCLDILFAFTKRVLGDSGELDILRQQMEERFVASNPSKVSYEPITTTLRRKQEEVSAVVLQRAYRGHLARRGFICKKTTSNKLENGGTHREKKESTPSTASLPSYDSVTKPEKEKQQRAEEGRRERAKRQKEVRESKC

Regarding “GPSCQKWMQTCDAERKCCEGFVCRLWCKKKLW-OH (cysteine pairing not given here) [NV1D2773]”, the IC50 in assay [1] (human, pH 7.4) was over 3 µM.
With “GPQCQKWMQTCDAERKCCEGFVCRLWCKKKLW-OH (cysteine pairing not given here) [NV1D2775]”, the “selectivity for Nav1.7 compared to recombinant Protoxin-II” value in assay [2] was “improved selectivity”. Moreover, the “thermal latencies after peptide administration” value in assay [3] (1824 μg/day, cut-off 20 s) is on record as “close to the cut-off”. Also, the “Thermal MPE %” value in assay [3] (228 μg/day/mouse by subcutaneous osmotic mini-pump) is given as 35 ± 8 (8) %. The “Thermal MPE %” value in assay [3] (1824 μg/day/mouse by subcutaneous osmotic mini-pump) was found to be 85 ± 6 %. In assay [3] (mouse, in vivo), the “efficacy in the CFA model” value was “strong efficacy”; the “time at which anti-hyperalgesic effect was first seen, post-pump implantation” value was 4 h; the “time at which effect reached the maximum, thermal test” value was 8 h; the “time by which thermal latency returned to control level post pump implantation” value is given as at most 48 h. Also, the CFA-induced tactile allodynia entry in assay [4] (1824 μg/day) is on record as “reversed”. In assay [4] (mouse, in vivo), the “time at which effect reached the maximum, tactile test” value stood at 8 h and the “time by which tactile threshold returned to control level post pump implantation” value is listed as at most 48 h. In assay [5] (228 μg/day), the “hotplate thermal latency compared to the PBS control” value was “modest yet significant increase”. Also, the “hotplate latencies at 50 and 55° C.” value in assay [5] (1824 μg/day) is reported as “near cut-off”. The “efficacy in the hotplate test” value in assay [5] (mouse, in vivo, listed as NV1D2775-OH) is recorded as “strong, dose-dependent efficacy; also recorded: significant analgesia”. Also, in assay [6], the “analgesia, thermal withdrawal latency on day1 post-pump” value is on record as “significant analgesia” and the “protection from carrageenan-induced thermal hyperalgesia” value is reported as “fully protected”.
Consider “YCQKWMWTCDSERKCCEGMVCRLWCKKKLW-COOH [wild type Protoxin-II]”, for which the “efficacy in rodent models of acute and inflammatory pain” value in assay [7] is reported as “non-efficacious”. Also, in assay [8], the “inhibition of action potential firing in isolated nerves” value is given as “inability”.
Consider “GPYCQKWMWTCDSERKCCEGMVCRLWCKKKLW-COOH [NV1D12, reference compound]”, for which the IC50 was about 0.062 µM in assay [2] (read-out: IC50 for Nav1.6, QPatch electrophysiology assay) and over 1 µM in assay [1].

By IC50 is commonly meant the point on the concentration scale where inhibition reaches its midpoint.
